Data: ChEMBL document CHEMBL5126521, “Analgesic Opioid Ligand Discovery Based on Nonmorphinan Scaffolds Derived from Natural Sources” (J Med Chem, 2022)
Bridge positions count the residues as written; N and C are the ends. Square brackets hold non-standard residues; d marks the D form. Peptide text beside a SMILES is read from it. ξ: configuration not given here. d1Nal = N[C@H](Cc1cccc2ccccc12)C(=O)O; d2Nal = N[C@H](Cc1ccc2ccccc2c1)C(=O)O; Dmt = Cc1cc(O)cc(C)c1C[C@H](N)C(=O)O; ξGly(octyl) = CCCCCCCCC(N)C(=O)O

Columns and labels:
[1] = Degradation half life in rat brain homogenate; format: ADME, tissue-based
Mus musculus [2] = experiment: Antinociceptive activity in Swiss albino mouse assessed tail flick response in warm water administered icv; format: functional
[3] = Stability in mouse serum assessed as half life; format: ADME, cell-free
[4] = Stability in rat brain homogenate assessed as compound remaining measured after 90 mins relative to control; format: ADME, tissue-based; conditions: read-out: Stability
[5] = Stability in rat brain homogenate assessed as half life; format: ADME, tissue-based
Mu-type opioid receptor [6] = biological target: T1, Mu-type opioid receptor (Homo sapiens, UniProt P35372); experiment: Displacement of [3H]DAMGO from MOP (unknown origin) stably expressed in CHO cell membrane incubated for 90 mins by scintillation counter analysis; format: cell membranes
T1 sequence (P35372 whole entry): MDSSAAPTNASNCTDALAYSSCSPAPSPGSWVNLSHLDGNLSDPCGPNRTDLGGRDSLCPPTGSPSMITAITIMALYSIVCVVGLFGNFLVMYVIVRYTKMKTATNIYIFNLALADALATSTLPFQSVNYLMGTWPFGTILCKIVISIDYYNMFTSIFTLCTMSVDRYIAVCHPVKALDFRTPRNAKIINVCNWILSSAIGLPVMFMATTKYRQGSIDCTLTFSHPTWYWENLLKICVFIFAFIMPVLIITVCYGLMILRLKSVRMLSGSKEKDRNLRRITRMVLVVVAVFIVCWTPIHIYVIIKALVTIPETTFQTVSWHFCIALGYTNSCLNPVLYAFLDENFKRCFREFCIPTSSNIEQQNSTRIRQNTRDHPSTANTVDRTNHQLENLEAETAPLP

[7] = biological target: T2, Delta-type opioid receptor (Homo sapiens, UniProt P41143); experiment: Displacement of [3H]DPDPE from DOP (unknown origin) stably expressed in CHO cell membrane incubated for 90 mins by scintillation counter analysis; format: cell membranes
T2 sequence (P41143 whole entry): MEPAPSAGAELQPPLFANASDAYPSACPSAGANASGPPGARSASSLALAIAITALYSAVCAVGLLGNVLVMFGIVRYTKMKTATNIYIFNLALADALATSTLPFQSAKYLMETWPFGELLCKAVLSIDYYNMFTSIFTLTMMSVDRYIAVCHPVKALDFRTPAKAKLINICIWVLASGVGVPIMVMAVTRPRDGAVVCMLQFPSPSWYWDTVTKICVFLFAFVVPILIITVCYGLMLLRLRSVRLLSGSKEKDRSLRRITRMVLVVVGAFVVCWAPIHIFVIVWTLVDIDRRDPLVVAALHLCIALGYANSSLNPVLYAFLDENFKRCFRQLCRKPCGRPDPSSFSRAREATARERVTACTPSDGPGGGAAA

[8] = biological target: T3, Kappa-type opioid receptor (Homo sapiens, UniProt P41145); experiment: Displacement of [3H]diprenorphine from KOP (unknown origin) stably expressed in CHO cell membrane incubated for 90 mins by scintillation counter analysis; format: cell membranes
T3 sequence (P41145 whole entry): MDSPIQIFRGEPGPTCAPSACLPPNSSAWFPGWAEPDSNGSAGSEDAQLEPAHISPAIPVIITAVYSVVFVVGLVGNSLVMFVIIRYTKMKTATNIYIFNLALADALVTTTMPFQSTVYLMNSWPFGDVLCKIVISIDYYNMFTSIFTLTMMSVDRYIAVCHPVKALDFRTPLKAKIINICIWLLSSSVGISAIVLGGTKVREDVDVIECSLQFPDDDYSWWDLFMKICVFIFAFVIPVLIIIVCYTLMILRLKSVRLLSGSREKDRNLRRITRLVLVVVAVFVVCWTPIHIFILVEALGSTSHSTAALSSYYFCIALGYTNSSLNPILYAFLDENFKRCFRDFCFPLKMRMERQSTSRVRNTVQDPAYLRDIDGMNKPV

Mus musculus [9] = experiment: Antinociceptive activity in icv dosed C57BL/6J mouse assessed as tail withdrawal latency from warm water; format: functional
[10] = biological target: T2, Delta-type opioid receptor; experiment: Binding affinity to DOP (unknown origin)
[11] = biological target: T2, Delta-type opioid receptor; experiment: Inhibition of DOP (unknown origin)
[12] = biological target: T3, Kappa-type opioid receptor; experiment: Inhibition of KOP (unknown origin)
Rattus norvegicus [13] = experiment: Antinociceptive activity in Sprague-Dawley rat assessed as tail flick response in warm water administered iv; format: functional
Mu-type opioid receptor [14] = biological target: T1, Mu-type opioid receptor; experiment: Agonist activity at MOP in human SH-SY5Y cells assessed as forskolin stimulated cAMP accumulation incubated for 30 mins by Biotrak-EIA kit method; format: functional, cell-based
Mu-type opioid receptor [15] = biological target: T1, Mu-type opioid receptor; experiment: Displacement of [3H]DAMGO from human MOP expressed in CHO-K1 cell membrane incubated for 60 mins by Microscint-counting analysis; format: cell membranes
[16] = biological target: T2, Delta-type opioid receptor; experiment: Displacement of [3H]DPDPE from human DOP expressed in CHO-K1 cell membrane incubated for 60 mins by Microscint-counting analysis; format: cell membranes
Mu-type opioid receptor [17] = biological target: T1, Mu-type opioid receptor; experiment: Agonist activity at human MOP expressed in CHO-K1 cell membrane assessed as [35S]GTPgammaS binding; format: functional, cell membranes
Mu-type opioid receptor [18] = biological target: T1, Mu-type opioid receptor; experiment: Agonist activity at human MOP expressed in CHO-K1 cell membrane assessed as [35S]GTPgammaS binding relative to control; format: functional, cell membranes; conditions: filed as agonist
Rattus norvegicus [19] = experiment: Antinociceptive activity in Sprague-Dawley rat assessed as tail flick response in warm water administered icv; format: functional
Mu-type opioid receptor [20] = biological target: Mu-type opioid receptor (Cavia porcellus, UniProt P97266); experiment: Antagonist activity at guinea pig ileum MOP; format: functional, tissue-based
Chain of Mu-type opioid receptor (Cavia porcellus, UniProt P97266) (P97266 whole entry): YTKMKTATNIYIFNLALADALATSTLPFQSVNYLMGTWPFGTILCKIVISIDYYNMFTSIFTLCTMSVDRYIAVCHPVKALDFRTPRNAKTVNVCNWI

Mus musculus [21] = organism: Mus musculus; experiment: Antinociceptive activity in mouse by tail pressure test; format: functional; conditions: Mus musculus; read-out: ED50
Mus musculus [22] = experiment: Antinociceptive activity in mouse administered icv; format: functional
[23] = Half life in mouse liver microsomes; format: ADME, Microsome
[24] = Toxicity in icv dosed C57BL/6J mouse assessed as antinociceptive activity tolerance; format: organism-based; conditions: in vivo, icv_or_intrathecal
Mus musculus [25] = experiment: Antinociceptive activity in po dosed C57BL/6J mouse assessed as tail withdrawal latency from warm water; format: functional
Mu-type opioid receptor [26] = biological target: T1, Mu-type opioid receptor; experiment: Binding affinity to MOP (unknown origin)
Mus musculus [27] = experiment: Antinociceptive activity in Kunming mouse assessed as heat paw withdrawal measured after 10 secs administered icv; format: functional; conditions: time 10 sec, 10 s
[28] = biological target: Delta-type opioid receptor (Mus musculus, UniProt P32300); experiment: Displacement of [3H]DPDPE from mouse DOP stably expressed in CHO cell membrane; format: cell membranes
Chain of Delta-type opioid receptor (Mus musculus, UniProt P32300) (P32300 whole entry): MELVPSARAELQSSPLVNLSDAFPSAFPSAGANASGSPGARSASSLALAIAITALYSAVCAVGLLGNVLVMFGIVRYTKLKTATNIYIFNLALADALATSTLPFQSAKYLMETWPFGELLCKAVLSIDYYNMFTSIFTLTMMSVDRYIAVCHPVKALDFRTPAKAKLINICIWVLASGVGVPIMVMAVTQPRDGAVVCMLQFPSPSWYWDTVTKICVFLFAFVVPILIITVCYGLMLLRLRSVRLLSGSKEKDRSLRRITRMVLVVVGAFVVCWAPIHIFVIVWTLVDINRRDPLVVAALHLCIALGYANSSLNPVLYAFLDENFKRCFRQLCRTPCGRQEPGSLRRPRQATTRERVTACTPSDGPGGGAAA

[29] = biological target: T3, Kappa-type opioid receptor; experiment: Binding affinity to human KOP stably expressed in CHO cell membrane assessed as [35S]GTPgammaS binding; format: cell membranes; conditions: filed as antagonist
[30] = biological target: Kappa-type opioid receptor (Rattus norvegicus, UniProt P34975); experiment: Displacement of [3H]-norBNI from Wistar rat brain membrane KOP; format: cell membranes
Chain of Kappa-type opioid receptor (Rattus norvegicus, UniProt P34975) (P34975 whole entry): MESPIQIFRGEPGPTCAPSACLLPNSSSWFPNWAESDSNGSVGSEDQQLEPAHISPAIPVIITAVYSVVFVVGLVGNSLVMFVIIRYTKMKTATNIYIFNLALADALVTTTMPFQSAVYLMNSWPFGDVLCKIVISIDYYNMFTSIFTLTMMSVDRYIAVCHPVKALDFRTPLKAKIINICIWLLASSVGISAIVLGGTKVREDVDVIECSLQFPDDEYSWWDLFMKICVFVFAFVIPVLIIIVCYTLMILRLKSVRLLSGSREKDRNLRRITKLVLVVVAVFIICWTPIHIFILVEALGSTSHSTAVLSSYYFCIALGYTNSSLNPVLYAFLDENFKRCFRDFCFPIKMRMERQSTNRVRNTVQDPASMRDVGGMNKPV

## Cc1cc(O)cc(C)c1C[C@H](N)C(=O)N1Cc2ccccc2C[C@H]1C(=O)N[C@@H](Cc1ccccc1)[C@@H](O)C(=O)N[C@@H](Cc1ccccc1)C(N)=O
[1]
  half-life: 120 min

## NC(=O)[C@H](Cc1ccccc1)NC(=O)[C@H](Cc1ccccc1)NC(=O)[C@@H]1CCCN1C(=O)[C@@H](N)Cc1ccc(O)cc1 [ENDOMORPHIN 2]
Mus musculus [2]
  ED50: 6.88 nmol
[3]
  half-life: 8.2 min
[1]
  half-life: 0.75 min
[4]
  remaining at […]: 0%
[5]
  half-life: 15.9 min

## C[C@@H]1NC(=O)[C@H](Cc2c[nH]c3ccccc23)NC(=O)[C@H](Cc2ccccc2)NC(=O)[C@H]2CCCN2C1=O
Mu-type opioid receptor [6]
  Ki: 32.2 nM
[7]
  Ki: 8.68 µM
[8]
  Ki: 8 nM
Mus musculus [9]
  ED50: 1.49 nmol

## CC[C@@H]1CN2CCc3c([nH]c4cccc(OC)c34)[C@H]2C[C@@H]1/C(=C\OC)C(=O)OC
[10]
  Ki: > 10000 nM
[11]
  IC50: > 10 µM
[12]
  IC50: 10 µM

## CCCCCCCCC(N)C(=O)N[C@@H](Cc1ccc(O)cc1)C(=O)N1CCC[C@H]1C(=O)N[C@@H](Cc1c[nH]c2ccccc12)C(=O)N[C@@H](Cc1ccccc1)C(N)=O (some centres undefined) (H-[ξGly(octyl)]YPWF-NH2)
Rattus norvegicus [13]
  ED50: 1.2 µmol/kg
Mu-type opioid receptor [14]
  EC50: 31.4 nM

## NC(=O)[C@@H]1CCC(=O)NCCCC[C@@H](NC(=O)[C@@H](N)Cc2ccc(O)cc2)C(=O)N[C@@H](Cc2c[nH]c3ccccc23)C(=O)N[C@@H](Cc2ccccc2)C(=O)N1
Mu-type opioid receptor [15]
  Ki: 0.63 nM
[16]
  Ki: 83 nM
Mu-type opioid receptor [17]
  EC50: 0.43 nM
Mu-type opioid receptor [18]
  Emax: 100%
Rattus norvegicus [19]
  ED50: 0.021 nmol
Rattus norvegicus [13]
  ED50: 2.2 mg/kg

## N=C(N)NCCC[C@@H](NC(=O)[C@@H](N)Cc1ccc(O)cc1)C(=O)N[C@@H](Cc1ccccc1)C(=O)NCC(=O)N[C@@H](Cc1ccc(O)cc1)C(=O)N1CCC[C@H]1C(=O)N[C@@H](CO)C(N)=O
Mu-type opioid receptor [20]
  IC50: 90 nM
Mus musculus [21]
  ED50: 3.5 mg/kg
Mus musculus [22]
  ED50: 23 pmol

## O=C1N[C@H](Cc2ccccc2)C(=O)N2CCC[C@@H]2C(=O)N[C@@H](Cc2ccccc2)C(=O)N[C@H]1Cc1c[nH]c2ccccc12
[23]
  half-life: 54 min
Mu-type opioid receptor [6]
  Ki: > 100000 nM
[24]
  ED50: 20.3 nmol
Mus musculus [9]
  ED50: 0.75 nmol
Mus musculus [25]
  ED50: 7.62 mg/kg

## CC(C)(C)OC(=O)[C@H](Cc1ccccc1)NC(=O)[C@H](Cc1ccccc1)NC(=O)[C@@H]1CCCN1C(=O)[C@@H](N)Cc1ccc(O)cc1
Mu-type opioid receptor [26]
  Ki: 50.3 nM
[10]
  Ki: 247 nM
Mus musculus [27]
  ED50: 3.2 nmol
[3]
  half-life: 46 min
[5]
  half-life: 72.2 min

## CCOC(=O)[C@H](Cc1ccccc1)NC(=O)[C@H](Cc1ccccc1)NC(=O)[C@@H]1CCCN1C(=O)[C@@H](N)Cc1ccc(O)cc1
Mu-type opioid receptor [26]
  Ki: 15 nM
[10]
  Ki: 2940 nM
Mus musculus [27]
  ED50: 8.4 nmol
[3]
  half-life: 29.9 min
[5]
  half-life: 58.6 min

## O=C1N[C@H](Cc2c[nH]c3ccccc23)C(=O)N[C@@H](Cc2ccccc2)C(=O)N2CCC[C@@H]2C(=O)N[C@H]1Cc1ccccc1
[28]
  Ki: 4.19 µM
[29]
  Kb: 20.2 nM
Mus musculus [25]
  ED50: 60 mg/kg

## O=C1N[C@H](Cc2ccccc2)C(=O)N[C@H](Cc2c[nH]c3ccccc23)C(=O)N[C@@H](Cc2ccccc2)C(=O)N2CCC[C@H]12
[23]
  half-life: ≤ 30 min
[24]
  ED50: 0.49 nmol
Mus musculus [9]
  ED50: 0.56 nmol
Mus musculus [25]
  ED50: 4.72 mg/kg

## Cc1cc(O)cc(C)c1C[C@H](N)C(=O)N[C@@H]1CCCCNC(=O)C[C@@H](C(N)=O)NC(=O)[C@@H](Cc2ccc3ccccc3c2)NC(=O)[C@H](Cc2ccccc2)NC1=O (H-[Dmt][dK]F[d2Nal]D-NH2; lactam 2-5)
Mus musculus [2]
  ED50: 0.08 µg
[30]
  Ki: 1.02 nM

## O=C1N[C@H](Cc2ccccc2)C(=O)N2CCC[C@@H]2C(=O)N[C@H](Cc2ccccc2)C(=O)N[C@H]1Cc1c[nH]c2ccccc12
[23]
  half-life: ≤ 30 min
[24]
  ED50: 5.19 nmol
Mus musculus [9]
  ED50: 1 nmol
Mus musculus [25]
  ED50: 4.12 mg/kg

## Cc1cc(O)cc(C)c1C[C@H](N)C(=O)N[C@@H]1CCCCNC(=O)C[C@@H](C(N)=O)NC(=O)[C@@H](Cc2cccc3ccccc23)NC(=O)[C@H](Cc2ccccc2)NC1=O (H-[Dmt][dK]F[d1Nal]D-NH2; lactam 2-5)
Mus musculus [2]
  ED50: 0.06 µg
[30]
  Ki: 1.78 nM
